Source: a melting point compilation (Tetko et al.; mined from patent text by program, amines drawn as free bases though some values may be those of a salt)

SMILES	melting point [°C]
NC(=O)c1cc(O)cc2nc(-c3ccc(O)cc3)oc12	325
Cc1cc(C(C)(C)C)c(O)c(C)c1CSP(=S)(C1CCCCC1)C1CCCCC1	113 to 116
CCCCNC(=O)CP(=O)(O)O	115 to 125
NC(=O)N(O)Cc1ccc(C(O)C#Cc2ccsc2)cc1 (centres undefined)	117 to 119
CC(=O)c1cscc1O	44 to 47
CC(C)n1c(C=O)c(-c2ccc(F)cc2)c(-c2ccc(F)cc2)c1C(=O)Nc1ccc(S(N)(=O)=O)cc1	194 to 195
Cc1cc(C2CC(C)(C)CC(C)(C)C2(O)C#C[Si](C)(C)C)ccc1F (centres undefined)	76 to 78
CN(C)CCOc1ccc(C=NCCN=Cc2ccc(OCCN(C)C)cc2O)c(O)c1	92 to 94
CCCn1c(OCC2CC2(Cl)Cl)nc2sccc2c1=O (centres undefined)	64 to 66
CCCCNC(=O)C1(c2ccccc2)CCN(C)CC1	73 to 76.5
O=C(O)c1ccc(CCCBr)cc1	120
COc1cc2nc(N3CCc4c(cccc4S(=O)(=O)N4CCN(C)CC4)C3)[nH]c(=O)c2cc1OC	230 to 237
OC(CN1CCNC1=S)c1cccc(F)c1 (centres undefined)	116
O=c1[nH]c(=O)n(CCCCBr)c2ncccc12	139 to 141
CCn1c(Oc2cccc(NC(N)=O)c2)nnc1[C@@H](C)NS(=O)(=O)c1ccc(Cl)c(Cl)c1	137 to 138
COCCOC(=O)C1=C(C)NC(C)=C(C(=O)OC(C)C)C1c1ccsc1Cl (centres undefined)	123 to 124
CC#CCOc1ccc(S(=O)(=O)C2(C(=O)NO)CCOCC2)cc1	210
Cc1cc(-c2nc3cccnn3c2-c2ccnc(NC(=O)c3ccc(Cl)nc3)c2)ccc1F	225 to 226
COC1CCc2c(c(C)[nH]c(=O)c2C#N)C1 (centres undefined)	257 to 259
CC1(C)C(=O)N(c2ccc([N+](=O)[O-])c(C(F)(F)F)c2)C(=O)N1CCOCCN1C(=O)N(c2ccc([N+](=O)[O-])c(C(F)(F)F)c2)C(=O)C1(C)C	186 to 188
O=C1Nc2cccc(-c3ccc(C(=O)O)cc3)c2/C1=C/c1ccc[nH]1	315 to 317

SMILES	melting point [°C]
COc1ccc(-c2nc(CO)c[nH]2)cc1OC1CCCC1	188 to 190
COc1cc(O)cc(C)c1C=CC(=O)c1ccc(O)cc1	197 to 198
Cc1ccc(-c2nnc(S)nc2-c2ccc(C)cc2)cc1	220 to 223
N#CC1=C2C(=NC1=O)c1c(Sc3ccc(Br)cc3)ccc3c(Sc4ccc(Br)cc4)ccc2c13	262 to 263
Cc1onc(NS(=O)(=O)c2cccs2)c1Br	156 to 158
CCOC(=O)c1cnc2c(c1O)CCCCCCCC2	212 to 230
OCCc1nccn1CCCCc1ccc(OCc2coc(/C=C/c3ccc(F)cc3)n2)cc1	130 to 132
COCCOc1ccc(CCC(=O)NS(=O)(=O)CCC(C)C)c(Oc2ncc(C(F)(F)F)cc2Cl)c1	130 to 132
CCC(=O)N1CCCC2=C1CCc1cc(Cl)ccc12	115 to 117
O=c1cc(O)cc(CBr)o1	77 to 78
N#CC1(c2ccc(F)cc2)C2CC3CC(C2)CC1C3 (centres undefined)	81 to 82
CCOC(=O)CCCNC(=O)c1nn(C2CCCCO2)cc1NC(=O)c1ccccn1 (centres undefined)	114 to 115
CC12CCC3C(CCC4CCCCC43C)C1CC(F)C2=O (centres undefined)	148 to 150
Cc1cn2cccc(OCc3c(Cl)ccc(S(=O)(=O)N4CCC[C@H]4C(=O)NCCCNC(=O)c4ccc(C#N)cc4)c3Cl)c2n1	100 to 102
CCCCCCCCCCc1ccc(CO)cc1	39 to 40
CS(=O)(=O)n1c2cc(O)c(O)cc2c2c(Br)cc(O)c(O)c21	> 270
Cc1[nH]cc2c(=O)n(-c3ccc(Cl)cc3)nc-2c1-c1cccc(C(=O)N2CCCC2)c1	253 to 255
O=C(N[C@H]1CC[C@H](CCN2CCC(c3cccc4c3CCO4)CC2)CC1)C1CC1	208
O=C(O)CN1C(=O)COc2cc(F)c([N+](=O)[O-])cc21	177 to 183
CN(C)CCCOc1ccc(C[C@H](NC(=O)[C@@H]2CCCN2S(=O)(=O)c2cccs2)C(=O)O)cc1	> 200
C=CCOC(=O)c1ccc(OC(=O)c2ccc(O)c(C34CC5CC(CC(C5)C3)C4)c2)cc1	175 to 177

SMILES	melting point [°C]
CC(C)(C)C(=O)Nc1nc(O)c2c(n1)NCC(CO)C2 (centres undefined)	236 to 238
COC(=O)c1csc(NC(=O)c2ccc(C#N)cc2)n1	228
CCCCN(C(=O)c1ccccc1)C1CC(C)(C)N(OC(=O)c2ccccc2)C(C)(C)C1	155 to 159
CCC1(C2CCCC2)Cc2cc(OCCCC(=O)O)c(Cl)c(Cl)c2C1=O (centres undefined)	189 to 193
Cc1ccc(OC2CN(S(=O)(=O)c3ccc(C)cc3)CCc3ccccc32)cc1 (centres undefined)	84 to 86
CC(CCC(=O)O)C(=O)NC1(C(=O)O)CCCC1 (centres undefined)	170 to 172
Cc1sc(-c2cccs2)nc1O	152 to 153
CC12CCC3c4ccc(C(=O)O)cc4CCC3C1CCC2C(=O)CC1CCCCC1 (centres undefined)	239 to 241
COc1ccc(C2CCC(OC(C)=O)CC2NC(=O)c2ccc(OCC3CC3)c(OCC3CC3)c2)cc1OC (centres undefined)	90 to 95
CCOC(=O)c1ccc(-c2c(Cl)c(CN3C(=O)CCC3=O)nc3sc4c(c23)CCNC4)cc1	213 to 214
Cc1ccc(C2=C(c3ccc(S(N)(=O)=O)cc3)CCC2)cn1	108 to 110
CC(CCCNC(=O)CCCCCBr)C(F)(F)F (centres undefined)	96 to 98
CCN(C)c1nsc(NC(=O)NC)c1C(N)=O	165 to 168
Nc1c(Br)cc(Br)c(CCC(=O)O)c1Br	195 to 197
Nc1ccc(N2CCN(c3ccc(OCC(O)(Cn4cncn4)c4ccc(Cl)cc4Cl)cc3)CC2)cc1 (centres undefined)	120
COC(=O)c1nc(CN(C)C)n(-c2ccc(Cl)cc2C(=O)c2ccccc2)n1	118 to 121
Cc1ccc(S(=O)(=O)OCC2CCN(C(=O)c3cccc(C)c3)CC2)cc1	68 to 70
COC(=O)CCCCC(O)c1ccc2c(c1)CCCC2 (centres undefined)	107 to 108
COCC1CN(c2ccc(C3CCNCC3)cc2)C(=O)O1 (racemic)	161 to 163

Other lines, results leading:

melting point [°C]	SMILES
241 to 242	Cc1nc2c3c(c(C(=O)N4CCC4)cc2n1C)CCC(c1ccccc1)O3 (centres undefined)
197 to 198	CCc1nc(N)nc(N)c1-c1ccccc1Cl
88	c1ccc2nc(COc3ccc(NC4CCCC4)cc3)ccc2c1
138 to 139	CCCCOc1ccc2cc(Nc3ccc(O)cc3)ccc2c1
214 to 218	Cc1ccccc1CC(=O)Nc1ccc(C(=O)O)c(Cl)c1
50 to 51	CCc1cc(CCCOc2c(C)cc(C#N)cc2C)on1
222 to 224	O=C(Nc1ccc(F)cc1F)Nc1c(-c2ccccc2)c2cc(Cl)ccc2[nH]c1=O
128 to 131	CCc1cc2c(NCc3ccccc3)ncnc2s1
230	Cc1nc(Cl)c2c(c1O)COC2c1ccccc1 (centres undefined)
229 to 231	C(=Nc1c2c(nc3ccccc13)CCCC2)c1cccc2ccccc12
189	CCCCOC(=O)c1ccc2ccc(C(=O)NCc3ccc(O)c(O)c3)nc2c1OC(=O)C(C)(C)C
151 to 152	CCOc1cc(OCc2cn(-c3ccc(C(F)(F)F)cn3)nc2C)ccc1CCC(=O)O
> 300	O=c1ccc2c(-c3ccncc3)nccc2[nH]1
263 to 264	O=C(O)C=c1sc2n(c1=O)Cc1ccccc1N=2
121 to 124	CCc1cn(C2CC(O)C(CNCc3ccccc3)O2)c(=O)[nH]c1=O (centres undefined)
96 to 98	CN1CC=C(C2c3ccccc3CCc3ccccc32)CC1
153 to 154	O=C(NNC(=O)C(F)(F)F)c1ccccc1
136	COC(=O)c1c(N)[nH]c2ccccc12
75	CCCCCCCCOc1ccc(-c2ncc(-c3ccc(CCCCCCCC)cc3)cn2)c(F)c1
151 to 152	O=C(CCc1ccccc1)N[C@H](Cc1ccc(C(F)(F)F)cc1)[C@@H](O)c1cccc(F)c1 (racemic)
151	CCc1nc(-c2ncn3c2CCCc2ccccc2-3)no1
162	Fc1ccc2c(N3CCN(Cc4ccccc4)CC3)n[nH]c2c1

melting point [°C]	SMILES
140 to 141	Cc1cc(OC(=O)c2ccccc2)cc(C)c1O
122	COc1ccccc1CNc1ccc2c(-c3noc(C)n3)cccc2n1
149 to 151	CCc1nc(NC(=N)N)sc1-c1cccc([N+](=O)[O-])c1
98 to 101	CCCSc1ncc(CO)n1Cc1ccccc1Cl
96.3 to 96.7	CCc1cc(-c2[nH]c3ccccc3c2CC)cc(CC)c1O
83 to 84	CCC(CN1CCCCC1)C(=O)c1cc(-c2ccccc2)no1 (centres undefined)
230	CC(=O)Nc1ccc(OCC2CO2)c(C(=O)Nc2cccc3[nH]ccc23)c1 (centres undefined)
143	c1ccc(OCCN2CCN(Cc3c[nH]c4ncccc34)CC2)cc1
156 to 158	O=C(O)c1cccc(C=CC(=O)N2CCc3c([nH]c4ccccc34)C2c2ccc3c(c2)OCO3)c1 (centres undefined)
179	COc1ccc2c(c1)C(c1ccccc1Cl)C(=O)N2 (centres undefined)
82 to 83	CC(=O)c1cccc(Oc2cccc(Cl)n2)c1
238 to 240	CNc1ncn(-c2c(C)cccc2Br)c(=O)n1
211 to 212	CC(=O)C(C(C)=O)=C1NC(=O)N(Cc2ccccc2)C1=O
123 to 124	Cc1cc(C)nc(NC(=O)Cc2ccsc2)c1
178 to 180	CCOC(=O)c1ccc(NC(=O)C=C2c3ccccc3CCc3ccccc32)cc1
187 to 189	CNC(=S)c1ccncc1C1c2ccccc2CC1(C)C (centres undefined)
179 to 180	CCCc1nc2ccccc2n1Cc1ccc(C2CCCC2C(=O)O)cc1 (centres undefined)
258 to 259	CCOc1ccc2cc(-c3nc(C(C)(C)C)[nH]c3-c3ccncc3)ccc2c1
104 to 105	CCOC(=O)N(CC(=O)NCCc1ccc(OC)c(OC)c1)c1cccc(C(N)=O)c1
57	Nc1ccccc1SCc1ncon1
91 to 92	CCOC(=O)NC(=NCCCc1c[nH]cn1)NCCSCc1ccccc1
